According to patent US4026888A, “Certain derivatives of particular 3-thiolated cephalosporins” (priority 1976, dated 1977):
≈ marks a conversion by molar mass, not a printed value.

Experiments:
Water solubility = format: physicochemical; conditions: in water at 23° C., read-out: Water solubility
Stability of solids = format: physicochemical; conditions: solid, read-out: Loss of bioactivity on storage at elevated temperatures
E. coli A15119 = assay: Oral PD50 in mice; format: in vivo; conditions: Escherichia coli, A15119, po, 3.5 h, oral; mice treated at 1 and 3.5 hours post-challenge; read-out: PD50
Experimental: (§1) Comparative Oral PD50 Values of
(§2) BL-S640 Derivatives in Mice
(§3) *Mice were treated at 1 and 3.5 hours post-challenge.

K. pneumoniae A9977 [1] = assay: Oral PD50 in mice; format: in vivo; conditions: Klebsiella pneumoniae, A9977; oral; mice treated at 1 and 3.5 hours post-challenge; read-out: PD50
Experimental: as §1, §2, §3

P. mirabilis A9707 = assay: Oral PD50 in mice; format: in vivo; conditions: Proteus mirabilis, mice treated at 1 and 3.5 hours post-challenge
Experimental: as §1, §2, §3

S. pyogenes A9604 = assay: Oral PD50 in mice; format: in vivo; conditions: Streptococcus pyogenes, mice treated at 1 and 3.5 hours post-challenge
Experimental: as §1, §2, §3

P. mirabilis A9900 [2] = assay: Oral PD50 in mice; format: in vivo; conditions: oral, mice treated at 1 and 3.5 hours post-challenge
P. mirabilis A9900 [3] = assay: IM PD50 in mice; format: in vivo; conditions: Proteus mirabilis
From the text: Comparative IM PD50 Values of
as §2

Str. pneumoniae A9585 = assay: Antibiotic activity in nutrient broth (MIC); format: cell-based; conditions: Streptococcus pneumoniae, A9585, inoculum 10^-3 dilution of overnight broth culture; 45% AAB + 5% serum + 50% broth; derivatives adjusted for BL-S640 content
From the text: (§4) Antibiotic Activity In Nutrient Broth
(§5) * 45% AAB+ 5% serum+ 50% broth listed above.
(§6) ** Dilution of overnight broth culture.
(§7) Antibiotic Spectrum Nutrient Broth
(§8) * 45% AAB + 5% serum + 50% broth
(§9) Antibiotic Spectrum in Nutrient Broth
(§10) *45% AAB + 5% serum + 50% broth listed above.

Str. pyogenes A9604 = assay: Antibiotic activity in nutrient broth (MIC); format: cell-based; conditions: Streptococcus pyogenes, A9604, inoculum 10^-3; 45% AAB + 5% serum + 50% broth; derivatives adjusted for BL-S640 content; read-out: MIC
From the text: as §4, §5, §6, §7, §8, §9, §10

E. coli A9675 = assay: Antibiotic activity in nutrient broth (MIC); format: cell-based; conditions: Escherichia coli, A9675
From the text: as §4, §6, §7, §9

E. coli Juhl A15119 = assay: Antibiotic activity in nutrient broth (MIC); format: cell-based; conditions: Escherichia coli, JUHLA15119
From the text: as §4, §6, §7, §9

Ent. cloacae A9656 = assay: Antibiotic activity in nutrient broth (MIC); format: cell-based; conditions: Enterobacter cloacae, A9656, inoculum 10^-4; derivatives adjusted for BL-S640 content
From the text: as §4, §6, §7, §9

Ent. cloacae A9657 = assay: Antibiotic activity in nutrient broth (MIC); format: cell-based; conditions: Enterobacter cloacae, A9657, inoculum 10^-4; derivatives adjusted for BL-S640 content; read-out: MIC
From the text: as §4, §6, §7, §9

Ent. cloacae A9659 = assay: Antibiotic activity in nutrient broth (MIC); format: cell-based; conditions: Enterobacter cloacae, A9659
From the text: as §4, §6, §7, §9

K. pneumoniae A15130 = assay: Antibiotic activity in nutrient broth (MIC); format: cell-based; conditions: Klebsiella pneumoniae, A15130
From the text: as §4, §6, §7, §9

K. pneumoniae A9977 [4] = assay: Antibiotic activity in nutrient broth (MIC); format: cell-based; conditions: Klebsiella pneumoniae
From the text: as §4, §6, §7, §9

Pr. mirabilis A9900 = assay: Antibiotic activity in nutrient broth (MIC); format: cell-based; conditions: Proteus mirabilis, inoculum 10^-4, derivatives adjusted for BL-S640 content
From the text: as §4, §6, §7, §9

Pr. morganii A15153 = assay: Antibiotic activity in nutrient broth (MIC); format: cell-based; conditions: Morganella morganii, A15153
From the text: as §4, §6, §7, §9

Ps. aeruginosa A9843A = assay: Antibiotic activity in nutrient broth (MIC); format: cell-based; conditions: Pseudomonas aeruginosa
From the text: as §4, §6, §7, §9

S. aureus BX1633 A9606 = assay: Antibiotic activity in nutrient broth (MIC); format: cell-based; conditions: Staphylococcus aureus, derivatives adjusted for BL-S640 content
From the text: as §4, §6, §7, §9

[5] = test system: S. aureus Meth-Res A15097; assay: Antibiotic activity in nutrient broth (MIC); format: cell-based; conditions: Staphylococcus aureus
From the text: as §4, §6, §7, §9

S. aureus Smith A9537 = assay: Antibiotic activity in nutrient broth (MIC); format: cell-based; conditions: Staphylococcus aureus, SMITHA9537, inoculum 10^-4, derivatives adjusted for BL-S640 content
From the text: as §4, §6, §7, §9

Sal. enteritidis A9531 = assay: Antibiotic activity in nutrient broth (MIC); format: cell-based; conditions: Salmonella enterica, ENTERITIDIS, inoculum 10^-4; derivatives adjusted for BL-S640 content; read-out: MIC
From the text: as §4, §6, §7, §9

Ser. marcescens A20019 = assay: Antibiotic activity in nutrient broth (MIC); format: cell-based; conditions: Serratia marcescens, A20019, inoculum 10^-4; derivatives adjusted for BL-S640 content
From the text: as §4, §6, §7, §9

## N[C@@H](C(=O)N[C@@H]1C(=O)N2C(C(=O)O)=C(CSc3c[nH]nn3)CS[C@H]12)c1ccc(O)cc1 [7-[D-α-amino-α-(p-hydroxyphenyl)acetamido]-3-(1,2,3-triazol-5-ylthiomethyl)-3-cephem-4-carboxylic acid propylene glycol solvate]
Water solubility
  solubility: ~10000 µg/mL
Stability of solids; 56° C., 1 month
  degraded at 720 h: < 10%
Stability of solids; 100° C., 24 hours
  degraded at 24 h: < 6%
Stability of solids; 100° C., 48 hours
  degraded at 48 h: < 12%

## CC1=C(C(=O)O)N2C(=O)[C@@H](NC(=O)[C@H](N)c3ccccc3)[C@H]2SC1 [Cephalexin, reference compound]
E. coli A15119
  ED50: 13 mg/kg
K. pneumoniae A9977 [1]
  ED50: 43 mg/kg
P. mirabilis A9707
  ED50: 50 mg/kg
S. pyogenes A9604
  ED50: 11 mg/kg
P. mirabilis A9900 [2]; Proteus mirabilis, A9900, po, 3.5 h, read-out: PD50
  ED50: 66 mg/kg
P. mirabilis A9900 [2]
  PD50: 55 mg./kg./treatment
P. mirabilis A9900 [3]
  ED50: 50 mg/kg

## CC(=O)OCC1=C(C(=O)O)N2C(=O)[C@@H](NC(=O)Cc3cccs3)[C@H]2SC1 [Cephalothin, reference compound]
Str. pneumoniae A9585
  MIC: 0.03 µg/mL
Str. pyogenes A9604
  MIC: 0.03 µg/mL
E. coli A9675
  MIC: 32 µg/mL (≈ 80.7 µM)
E. coli Juhl A15119
  MIC: 16 µg/mL (≈ 40.4 µM)
Ent. cloacae A9656
  MIC: > 125 µg/mL
Ent. cloacae A9657
  MIC: 8 µg/mL (≈ 20.2 µM)
Ent. cloacae A9659
  MIC: > 125 µg/mL
K. pneumoniae A15130
  MIC: 32 µg/mL (≈ 80.7 µM)
K. pneumoniae A9977 [4]
  MIC: 1 µg/mL (≈ 2.52 µM)
Pr. mirabilis A9900
  MIC: 1 µg/mL (≈ 2.52 µM)
Pr. morganii A15153
  MIC: > 125 µg/mL
Ps. aeruginosa A9843A
  MIC: > 125 µg/mL
S. aureus BX1633 A9606; BX1633A9606, inoculum 10^-2
  MIC: 0.25 µg/mL (≈ 0.631 µM)
S. aureus BX1633 A9606; BX1633A9606, inoculum 10^-3
  MIC: 0.13 µg/mL (≈ 0.328 µM)
[5]
  MIC: 1 to 16 µg/mL (≈ 2.52 to 40.4 µM)
S. aureus Smith A9537; + 50% serum
  MIC: 0.5 µg/mL
S. aureus Smith A9537; nutrient broth
  MIC: 0.13 µg/mL (≈ 0.328 µM)
Sal. enteritidis A9531
  MIC: 0.25 µg/mL (≈ 0.631 µM)
Ser. marcescens A20019
  MIC: > 125 µg/mL
